Assay results reported in patent US11098038B2, “Imidazole-based anticancer agents and derivatives thereof, and methods of making and using same” (The University of Toledo, priority 2017, dated 2021).

Columns and labels:
PC-3 = assay: NCI 60 screen, PC-3; format: cell-based; conditions: Homo sapiens, Prostatic
Method: (§1) The compounds synthesized were tested at the National Cancer Institute (NCI) for anti-proliferative activity in the 60 human tumor cell line assay.

A549/ATCC = assay: NCI 60 screen, A549/ATCC; format: cell-based; conditions: Homo sapiens, Non-Small Cell Lung
Method: as §1

RXF393 = assay: NCI 60 screen, RXF393; format: cell-based; conditions: Homo sapiens, RXF 393, Renal
Method: as §1

NCI/ADR-RES = assay: NCI 60 screen, NCI/ADR-RES; format: cell-based; conditions: Homo sapiens, Ovarian
Method: as §1

EKVX = assay: NCI 60 screen, EKVX; format: cell-based; conditions: Homo sapiens, Non-Small Cell Lung
Method: as §1

MALME-3M = assay: NCI 60 screen, MALME-3M; format: cell-based; conditions: Homo sapiens, Melanoma
Method: as §1

OVCAR-5 = assay: NCI 60 screen, OVCAR-5; format: cell-based; conditions: Homo sapiens, Ovarian
Method: as §1

NCI-H23 = assay: NCI 60 screen, NCI-H23; format: cell-based; conditions: Homo sapiens, Non-Small Cell Lung
Method: as §1

SW-620 = assay: NCI 60 screen, SW-620; format: cell-based; conditions: Homo sapiens, Colon
Method: as §1

RPMI-8226 = assay: NCI 60 screen, RPMI-8226; format: cell-based; conditions: Homo sapiens, Leukemia
Method: as §1

CAKI-1 = assay: NCI 60 screen, CAKI-1; format: cell-based; conditions: Homo sapiens, Renal
Method: as §1

HOP-62 = assay: NCI 60 screen, HOP-62; format: cell-based; conditions: Homo sapiens, Non-Small Cell Lung
Method: as §1

KM12 = assay: NCI 60 screen, KM12; format: cell-based; conditions: Homo sapiens, Colon
Method: as §1

NCI-322M = assay: NCI 60 screen, NCI-322M; format: cell-based; conditions: Homo sapiens, Non-Small Cell Lung
Method: as §1

HS 578T = assay: NCI 60 screen, HS 578T; format: cell-based; conditions: Homo sapiens, Breast
Method: as §1

UACC-62 = assay: NCI 60 screen, UACC-62; format: cell-based; conditions: Homo sapiens, Melanoma
Method: as §1

DU-145 = assay: NCI 60 screen, DU-145; format: cell-based; conditions: Homo sapiens, Prostatic
Method: as §1

NCI-H226 = assay: NCI 60 screen, NCI-H226; format: cell-based; conditions: Homo sapiens, Non-Small Cell Lung
Method: as §1

SR = assay: NCI 60 screen, SR; format: cell-based; conditions: Homo sapiens, Leukemia
Method: as §1

MCF7 = assay: NCI 60 screen, MCF7; format: cell-based; conditions: Homo sapiens, Breast
Method: as §1

MDA-MB-468 = assay: NCI 60 screen, MDA-MB-468; format: cell-based; conditions: Homo sapiens, Breast
Method: as §1

MDA-MB-231/ATCC = assay: NCI 60 screen, MDA-MB-231/ATCC; format: cell-based; conditions: Homo sapiens, Breast
Method: as §1

786-0 = assay: NCI 60 screen, 786-0; format: cell-based; conditions: Homo sapiens, Renal
Method: as §1

A498 = assay: NCI 60 screen, A498; format: cell-based; conditions: Homo sapiens, Renal
Method: as §1

ACHN = assay: NCI 60 screen, ACHN; format: cell-based; conditions: Homo sapiens, Renal
Method: as §1

SNB-19 = assay: NCI 60 screen, SNB-19; format: cell-based; conditions: Homo sapiens, CNS
Method: as §1

SF-295 = assay: NCI 60 screen, SF-295; format: cell-based; conditions: Homo sapiens, CNS
Method: as §1

NCI-460 = assay: NCI 60 screen, NCI-460; format: cell-based; conditions: Homo sapiens, Non-Small Cell Lung
Method: as §1

UO-31 = assay: NCI 60 screen, UO-31; format: cell-based; conditions: Homo sapiens, Renal
Method: as §1

MOLT-4 = assay: NCI 60 screen, MOLT-4; format: cell-based; conditions: Homo sapiens, Leukemia
Method: as §1

HCT15 = assay: NCI 60 screen, HCT15; format: cell-based; conditions: Homo sapiens, HCT-15, Colon
Method: as §1

HT29 = assay: NCI 60 screen, HT29; format: cell-based; conditions: Homo sapiens, HT-29, Colon
Method: as §1

SK-MEL-5 = assay: NCI 60 screen, SK-MEL-5; format: cell-based; conditions: Homo sapiens, Melanoma
Method: as §1

CCRF-CEM = assay: NCI 60 screen, CCRF-CEM; format: cell-based; conditions: Homo sapiens, Leukemia
Method: as §1

NCI-H522 = assay: NCI 60 screen, NCI-H522; format: cell-based; conditions: Homo sapiens, Non-Small Cell Lung
Method: as §1

SK-OV-3 = assay: NCI 60 screen, SK-OV-3; format: cell-based; conditions: Homo sapiens, Ovarian
Method: as §1

UACC-257 = assay: NCI 60 screen, UACC-257; format: cell-based; conditions: Homo sapiens, Melanoma
Method: as §1

LOX IMVI = assay: NCI 60 screen, LOX IMVI; format: cell-based; conditions: Homo sapiens, Melanoma
Method: as §1

HOP-92 = assay: NCI 60 screen, HOP-92; format: cell-based; conditions: Homo sapiens, Non-Small Cell Lung
Method: as §1

OVCAR-4 = assay: NCI 60 screen, OVCAR-4; format: cell-based; conditions: Homo sapiens, Ovarian
Method: as §1

HCC-2998 = assay: NCI 60 screen, HCC-2998; format: cell-based; conditions: Homo sapiens, Colon
Method: as §1

T-47D = assay: NCI 60 screen, T-47D; format: cell-based; conditions: Homo sapiens, T47D, Breast
Method: as §1

SK-MEL-2 [1] = assay: NCI 60 screen, SK-MEL-2 (first line); format: cell-based; conditions: Homo sapiens; Melanoma, SK-MEL-2 (first of two lines so named, r37)
Method: as §1

HL-60(TB) = assay: NCI 60 screen, HL-60(TB); format: cell-based; conditions: Homo sapiens, Leukemia
Method: as §1

SK-MEL-2 [2] = assay: NCI 60 screen, SK-MEL-2 (second line); format: cell-based; conditions: Homo sapiens; Melanoma, SK-MEL-2 (second of two lines so named, r38)
Method: as §1

SNB-75 = assay: NCI 60 screen, SNB-75; format: cell-based; conditions: Homo sapiens, CNS
Method: as §1

OVCAR-3 = assay: NCI 60 screen, OVCAR-3; format: cell-based; conditions: Homo sapiens, Ovarian
Method: as §1

SN12C = assay: NCI 60 screen, SN12C; format: cell-based; conditions: Homo sapiens, Renal
Method: as §1

MDA-MB-435 = assay: NCI 60 screen, MDA-MB-435; format: cell-based; conditions: Homo sapiens, Melanoma
Method: as §1

TK-10 = assay: NCI 60 screen, TK-10; format: cell-based; conditions: Homo sapiens, Renal
Method: as §1

SF-539 = assay: NCI 60 screen, SF-539; format: cell-based; conditions: Homo sapiens, CNS
Method: as §1

BT-549 = assay: NCI 60 screen, BT-549; format: cell-based; conditions: Homo sapiens, Breast
Method: as §1

HCT-116 = assay: NCI 60 screen, HCT-116; format: cell-based; conditions: Homo sapiens, Colon
Method: as §1

U251 = assay: NCI 60 screen, U251; format: cell-based; conditions: Homo sapiens, U-251, CNS
Method: as §1

IGROV1 = assay: NCI 60 screen, IGROV1; format: cell-based; conditions: Homo sapiens, IGROV-1, Ovarian
Method: as §1

OVCAR-8 = assay: NCI 60 screen, OVCAR-8; format: cell-based; conditions: Homo sapiens, Ovarian
Method: as §1

SF-268 = assay: NCI 60 screen, SF-268; format: cell-based; conditions: Homo sapiens, CNS
Method: as §1

COLO 205 = assay: NCI 60 screen, COLO 205; format: cell-based; conditions: Homo sapiens, Colon
Method: as §1

Cc1ccc(NC(=O)Cc2ccc(/C=C/C(=O)c3ncc[nH]3)cc2)cc1 [Compound 20, (E)-2-(4-(3-(1H-imidazol-2-yl)-3-oxoprop-1-en-1-yl)phenyl)-N-(p-tolyl)acetamide]
GI50 (PC-3): 7.1 µM | GI50 (A549/ATCC): 9.14 µM | GI50 (RXF393): 7.68 µM | GI50 (NCI/ADR-RES): 6.73 µM | GI50 (EKVX): 1.35 µM | GI50 (MALME-3M): 25 µM | GI50 (OVCAR-5): 6.84 µM | GI50 (NCI-H23): 5.85 µM | GI50 (SW-620): 5.22 µM | GI50 (RPMI-8226): 1.79 µM | GI50 (CAKI-1): 9.63 µM | GI50 (HOP-62): 5.24 µM | GI50 (KM12): 3.09 µM | GI50 (NCI-322M): 6.06 µM | GI50 (HS 578T): 13.6 µM | GI50 (UACC-62): 8.29 µM | GI50 (DU-145): 4.56 µM | GI50 (NCI-H226): 9.59 µM | GI50 (SR): 0.99 µM | GI50 (MCF7): 1.15 µM | GI50 (MDA-MB-468): 3.3 µM | GI50 (MDA-MB-231/ATCC): 9.46 µM | GI50 (786-0): 4.28 µM | GI50 (A498): 19.9 µM | GI50 (ACHN): 6.51 µM | GI50 (SNB-19): 6.65 µM | GI50 (SF-295): 7.9 µM | GI50 (NCI-460): 6.32 µM | GI50 (UO-31): 3.01 µM | GI50 (MOLT-4): 5.33 µM | GI50 (HCT15): 2.01 µM | GI50 (HT29): 0.955 µM | GI50 (SK-MEL-5): 18.3 µM | GI50 (CCRF-CEM): 4.67 µM | GI50 (NCI-H522): 4.54 µM | GI50 (SK-OV-3): 12.8 µM | GI50 (UACC-257): 25 µM | melting point: 218.5 °C | GI50 (LOX IMVI): 1.29 µM | GI50 (HOP-92): 1.85 µM | GI50 (OVCAR-4): 10.4 µM | GI50 (HCC-2998): 6.73 µM | GI50 (T-47D): 6.47 µM | GI50 (SK-MEL-2 [1]): 18.1 µM | GI50 (HL-60(TB)): 5.88 µM | GI50 (SK-MEL-2 [2]): 11.5 µM | GI50 (SNB-75): 7 µM | GI50 (OVCAR-3): 1.67 µM | GI50 (SN12C): 5.91 µM | GI50 (MDA-MB-435): 5.68 µM | GI50 (TK-10): 7.93 µM | GI50 (SF-539): 4.76 µM | GI50 (BT-549): 6.42 µM | GI50 (HCT-116): 3.28 µM | GI50 (U251): 1.59 µM | GI50 (IGROV1): 6.47 µM | GI50 (OVCAR-8): 7.24 µM | GI50 (SF-268): 5.32 µM | GI50 (COLO 205): 7.27 µM
